We go through ten compounds from patent US11427548B2 (Arvinas Operations, Inc., priority 2015, dated 2022).

Read-outs that look alike come from different tables or passages of the source.

The target of the assay is T1, Androgen Receptor (Homo sapiens, UniProt P10275).
T1 construct: endogenous in cells; host or cells: VCaP cells
T1 sequence (P10275 1-920): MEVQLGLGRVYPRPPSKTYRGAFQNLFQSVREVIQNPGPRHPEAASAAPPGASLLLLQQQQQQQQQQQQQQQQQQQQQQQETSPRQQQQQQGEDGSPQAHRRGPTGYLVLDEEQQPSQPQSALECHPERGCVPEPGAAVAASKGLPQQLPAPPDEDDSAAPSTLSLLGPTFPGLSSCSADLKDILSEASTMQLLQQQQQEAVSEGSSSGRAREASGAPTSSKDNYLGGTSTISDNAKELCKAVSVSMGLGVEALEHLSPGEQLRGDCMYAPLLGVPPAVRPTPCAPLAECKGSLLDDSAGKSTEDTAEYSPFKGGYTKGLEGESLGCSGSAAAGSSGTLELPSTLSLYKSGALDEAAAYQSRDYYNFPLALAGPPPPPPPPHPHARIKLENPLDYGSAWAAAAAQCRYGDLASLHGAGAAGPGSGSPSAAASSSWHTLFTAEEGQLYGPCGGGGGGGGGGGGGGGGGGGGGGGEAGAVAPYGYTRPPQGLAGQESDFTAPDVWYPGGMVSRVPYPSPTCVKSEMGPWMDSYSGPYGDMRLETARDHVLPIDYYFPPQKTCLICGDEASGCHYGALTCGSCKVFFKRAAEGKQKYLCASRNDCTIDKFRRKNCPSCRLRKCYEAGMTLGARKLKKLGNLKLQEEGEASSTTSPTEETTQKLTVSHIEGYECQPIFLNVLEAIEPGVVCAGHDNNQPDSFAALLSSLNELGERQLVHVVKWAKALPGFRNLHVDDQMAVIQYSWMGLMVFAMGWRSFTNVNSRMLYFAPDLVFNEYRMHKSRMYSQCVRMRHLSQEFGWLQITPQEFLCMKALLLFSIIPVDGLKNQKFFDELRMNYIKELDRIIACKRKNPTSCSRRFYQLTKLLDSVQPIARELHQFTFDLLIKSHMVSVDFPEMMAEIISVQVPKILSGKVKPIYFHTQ
Nature of the assay: Androgen Receptor ELISA assay (PathScan AR ELISA) in VCaP cells: AR degradation, Dmax and DC50. In kind it is cell-based. As to the method: 1. Androgen Receptor ELISA Assay.
The protocols used with VCaP cells are described below. The androgen receptor ELISA assay was performed using PathScan AR ELISA (Cell Signaling Catalog #12850) according to the following assay steps:
VCaP cells are seeded at 30,000 cells/well at a volume of 200 μL/well in VCaP assay medium [Phenol red free RPMI (Gibco Cat #11835-030); 5% Charcoal Stripped (Dextran treated) FBS (Omega Scientific, Cat #FB-04); Pen/Strep Life Technologies (Gibco Cat #: 10378-016); 0.1 nM R1881 (Sigma, Cat #R0908) is added upon the start of the assay, not during initial plating of the cells) in Corning 3904 plates. The cells are grown for a minimum of 3 days.
First, cells are dosed with compounds diluted in 0.1% DMSO—use a polypropylene plate according to the following protocol: (1)(i) make 1000× stock plate in DMSO; (ii) 20 mM stock diluted 1/6.7 with DMSO (5 μL+28.3 μL DMSO)=3 mM into row H; (iii) perform serial dilutions in ½ log doses (10 μL of PROTAC+20 μL DMSO) from row H towards row B. Reserve row A for DMSO; (iv) 7 doses total (final concentration in this 1000× plate will be 3 mM, 1 mM, 333 μM, 111 μM, etc). (2)(i) Make 10× stock plate in media; (ii) transfer 2.5 μL of the 1000× stock to a new 10× stock plate (use 12 channel pipet, start at A (DMSO control) work thru H. When 247.5 μL of media is added to this plate, it will serve as a 10× stock; (iii) make media+1 nM R1881 for making 10× stock plate; (iv) add 247.5 μL of media with 1 nM R1881 to each well of the 10× stock plate, mix.
Then 22 μL of 10× stock is added to cells and incubated for 24 h. 1× Cell Signaling Cell lysis buffer is made (Catalogue #9803; comes with the kit)—prepare for 50 μL/well. Keep on ice. Media is aspirated, and 50 μL 1× cell lysis buffer/well is added. The cells are placed on ice for 10 minutes. The solution is mixed and transferred to PCR plate, and centrifuged at 4C for 10 minutes at 4000 rpm.
5 μL is transferred to fresh plate (use immediately or freeze −80 C); 115 μL ELISA Dilutant is added (0.15 ug/ml-0.075 ug/ml; comes with the PathScan ELISA).
Add 100 μL/well AR Elisa; cover and shake, 37 C for 2 hrs; dump, tap, wash 4×200 μL ELISA wash buffer; add 100 μL/well mouse AR detection Ab; cover and shake, 37 C for 1 hr; dump, tap, wash 4×200 μL ELISA wash buffer; add 100 μL/well anti-mouse—HRP conjugated Ab (comes with the kit); cover and shake, 37 C for 30 min; allow TMB reagent to come to room temperature; dump, tap, wash 4×200 μL Elisa wash buffer; tap; add 100 μL TMB, shake 5 min—while watching color. Add the stop reagent when light blue color develops. Add 100 μL Stop solution; shake and read at 450 nm.
In general terms: ELISA stands for enzyme-linked immunosorbent assay.

[1] abbreviates: read-out: VCaP DC50; VCaP cells; Table 35.
[2] abbreviates: read-out: VCaP DC50; VCaP cells; Table 36.
Where [3] appears, read: read-out: VCaP DC50; concentration that caused 50% Androgen Receptor degradation, VCaP cells (Table 32).

The Dmax is the greatest extent of degradation seen. For orientation: DC50 means the midpoint of the concentration-degradation curve.

With `Cc1ncsc1-c1ccc([C@H](C)NC(=O)[C@@H]2C[C@@H](O)CN2C(=O)[C@@H](NC(=O)COc2ccc(O[C@H]3CC[C@H](Oc4ccc(N5C(=S)N(c6ccc(C#N)c(C(F)(F)F)c6)C(=O)C5(C)C)cc4)CC3)nc2)C(C)(C)C)cc1` (racemic) [Example 421], the Dmax (VCaP, read-out: VCaP Dmax (%)) lay within 26 to 50%. Besides, the DC50 under setting [1] fell in the range of 0.051 to 0.5 µM. For the compound `Cc1nccn1-c1ccc([C@H](C)NC(=O)[C@@H]2C[C@@H](O)CN2C(=O)C(C(C)C)n2cc(OCCCOCCCCCOc3ccc(N4C(=S)N(c5ccc(C#N)c(C(F)(F)F)c5)C(=O)C4(C)C)cc3)cn2)nc1` (mixture of isomers) [Example 423], the Dmax (VCaP, read-out: VCaP Dmax (%)) was under 25%. Moreover, the DC50 under setting [1] is over 0.501 µM. As for `Cc1ncsc1-c1ccc(CNC(=O)[C@@H]2C[C@@H](O)CN2C(=O)[C@@H](C(C)C)n2cc(OCCCOCCCCCOc3ccc(N4C(=S)N(c5ccc(C#N)c(C(F)(F)F)c5)C(=O)C4(C)C)cc3)cn2)nc1` (racemic) [Example 431], the Dmax (VCaP, read-out: VCaP Dmax (%)) is under 25%. Further, the DC50 under setting [1] is over 0.501 µM. With `Cc1ncsc1-c1ccc(CNC(=O)[C@@H]2C[C@@H](O)CN2C(=O)[C@@H](C(C)C)n2cc(OCC#CC#CCOc3ccc(N4C(=S)N(c5ccc(C#N)c(C(F)(F)F)c5)C(=O)C4(C)C)cc3)cn2)cc1` (racemic) [Example 616, 1-(2-(4-((6-(4-(3-(4-cyano-3-(trifluoromethyl)phenyl)-5,5-dimethyl-4-oxo-2-thioxoimidazolidin-1-yl)phenoxy)hexa-2,4-diyn-1-yl)oxy)-1H-pyrazol-1-yl)-3-methylbutanoyl)-4-hydroxy-N-(4-(4-methylthiazol-5-yl)benzyl)pyrrolidine-2-carboxamide], where the note is “VCaP, read-out: VCaP Dmax (%)”, the greatest degradation seen (Dmax) was under 25%. Further, the DC50 under setting [2] was over 0.501 µM.

Consider `Cc1ncsc1-c1ccc(CNC(=O)[C@@H]2C[C@@H](O)CN2C(=O)[C@@H](NC(=O)COC(C)CCCOc2ccc(-c3ccc(N4C(=S)N(c5ccc(C#N)c(C(F)(F)F)c5)C(=O)C4(C)C)cc3)cc2)C(C)(C)C)cc1` (stereo in doubt) [Example 147, (2S,4R)-1-[(2S)-2-(2-{[(2S)-5-[4-(4-{3-[4-cyano-3-(trifluoromethyl)phenyl]-5,5-dimethyl-4-oxo-2-sulfanylideneimidazolidin-1-yl}phenyl)phenoxy]pentan-2-yl]oxy}acetamido)-3,3-dimethylbutanoyl]-4-hydroxy-N-{[4-(4-methyl-1,3-thiazol-5-yl)phenyl]methyl}pyrrolidine-2-carboxamide], for which the Dmax (VCaP, read-out: VCaP Dmax (%)) was over 71%. Also, the DC50 under setting [3] was under 0.05 µM. On to `Cc1ncsc1-c1ccc(CNC(=O)[C@@H]2C[C@@H](O)CN2C(=O)[C@@H](NC(=O)COC(C)CCCOc2ccc(-c3ccc(N4C(=S)N(c5ccc(C#N)c(C(F)(F)F)c5)C(=O)C4(C)C)cc3)cc2)C(C)(C)C)cc1` (stereo in doubt) [Example 148, (2S,4R)-1-[(2S)-2-(2-{[(2R)-5-[4-(4-{3-[4-cyano-3-(trifluoromethyl)phenyl]-5,5-dimethyl-4-oxo-2-sulfanylideneimidazolidin-1-yl}phenyl)phenoxy]pentan-2-yl]oxy}acetamido)-3,3-dimethylbutanoyl]-4-hydroxy-N-{[4-(4-methyl-1,3-thiazol-5-yl)phenyl]methyl}pyrrolidine-2-carboxamide], for which the Dmax (VCaP, read-out: VCaP Dmax (%)) was over 71%. The DC50 under setting [3] is under 0.05 µM. Take `Cc1ncsc1-c1ccc(CNC(=O)[C@@H]2C[C@@H](O)CN2C(=O)C(C(C)C)n2cc(Oc3cccc(OCCCCCOc4ccc(N5C(=S)N(c6ccc(C#N)c(C(F)(F)F)c6)C(=O)C5(C)C)cc4)c3)cn2)cc1` (stereo in doubt) [Example 602, (2S,4R)-1-((R)-2-(4-(3-((5-(4-(3-(4-cyano-3-(trifluoromethyl)phenyl)-5,5-dimethyl-4-oxo-2-thioxoimidazolidin-1-yl)phenoxy)pentyl)oxy)phenoxy)-1H-pyrazol-1-yl)-3-methylbutanoyl)-4-hydroxy-N-(4-(4-methylthiazol-5-yl)benzyl)pyrrolidine-2-carboxamide]: the DC50 under setting [2] is over 0.501 µM. For the compound `Cc1ncsc1-c1ccc([C@H](C)NC(=O)[C@@H]2C[C@H](O)CN2C(=O)[C@@H](NC(=O)COCCN2CCN(c3ccc(C(=O)N[C@H]4C(C)(C)[C@H](Oc5ccc(C#N)c(Cl)c5)C4(C)C)cn3)CC2)C(C)(C)C)cc1` (stereo in doubt) [Example 608, N-((1r,3r)-3-(3-chloro-4-cyanophenoxy)-2,2,4,4-tetramethylcyclobutyl)-6-(4-(2-(2-(((S)-1-((2S,4R)-4-hydroxy-2-(((S)-1-(4-(4-methylthiazol-5-yl)phenyl)ethyl)carbamoyl)pyrrolidin-1-yl)-3,3-dimethyl-1-oxobutan-2-yl)amino)-2-oxoethoxy)ethyl)piperazin-1-yl)nicotinamide], the DC50 (VCaP cells; Table 36; read-out: VCaP DC50) was under 0.05 µM. Besides, for the setting “VCaP, VCaP cells; Table 36; read-out: VCaP Dmax (%)”, the Dmax is over 71%. `Cc1nccn1-c1ccc([C@H](C)NC(=O)[C@@H]2C[C@@H](O)CN2C(=O)C(C(C)C)n2cc(OCCCOCCCCCOc3ccc(N4C(=S)N(c5ccc(C#N)c(C(F)(F)F)c5)C(=O)C4(C)C)cc3)cn2)cc1` (stereo in doubt) [Example 612, (2S,4R)-1-((R)-2-(4-(3-((5-(4-(3-(4-cyano-3-(trifluoromethyl)phenyl)-5,5-dimethyl-4-oxo-2-thioxoimidazolidin-1-yl)phenoxy)pentyl)oxy)propoxy)-1H-pyrazol-1-yl)-3-methylbutanoyl)-4-hydroxy-N-((S)-1-(4-(2-methyl-1H-imidazol-1-yl)phenyl)ethyl)pyrrolidine-2-carboxamide]: the “VCaP Dmax (%)” value (VCaP cells; Table 36) is given as “_+”. The DC50 under setting [2] is over 0.501 µM. Regarding `Cc1ncsc1-c1ccc(CNC(=O)[C@@H]2C[C@@H](O)CN2C(=O)[C@@H](NC(=O)COCCCOCCC(O)CCOc2ccc(N3C(=S)N(c4ccc(C#N)c(C(F)(F)F)c4)C(=O)C3(C)C)cc2)C(C)(C)C)cc1` (stereo partly drawn) [Example 13, (2S,4R)-1-[(2S)-2-[2-(3-{[5-(4-{3-[4-cyano-3-(trifluoromethyl)phenyl]-5,5-dimethyl-4-oxo-2-sulfanylideneimidazolidin-1-yl}phenoxy)-3-hydroxypentyl]oxy}propoxy)acetamido]-3,3-dimethylbutanoyl]-4-hydroxy-N-{[4-(4-methyl-1,3-thiazol-5-yl)phenyl]methyl}pyrrolidine-2-carboxamide], the Dmax (VCaP, read-out: VCaP Dmax (%)) is 26 to 50%. In addition, the DC50 (read-out: VCaP DC50; concentration that caused 50% Androgen Receptor degradation, VCaP cells) was under 0.05 µM.
